Test results: article PMC10764907, “Aryl-quinoline-4-carbonyl hydrazone bearing different 2-methoxyphenoxyacetamides as potent α-glucosidase inhibitors; molecular dynamics, kinetic and structure–activity relationship studies” (Scientific Reports, 2024)
Where two headings read alike, the source gives them in different places.

Experiments:
α-glucosidase [1] = target: T1, α-glucosidase (Saccharomyces cerevisiae, UniProt P53341); assay: biochemical; type: biochemical; settings: for IC50: α-glucosidase inhibition, mean ± SD
T1 sequence (P53341 whole entry): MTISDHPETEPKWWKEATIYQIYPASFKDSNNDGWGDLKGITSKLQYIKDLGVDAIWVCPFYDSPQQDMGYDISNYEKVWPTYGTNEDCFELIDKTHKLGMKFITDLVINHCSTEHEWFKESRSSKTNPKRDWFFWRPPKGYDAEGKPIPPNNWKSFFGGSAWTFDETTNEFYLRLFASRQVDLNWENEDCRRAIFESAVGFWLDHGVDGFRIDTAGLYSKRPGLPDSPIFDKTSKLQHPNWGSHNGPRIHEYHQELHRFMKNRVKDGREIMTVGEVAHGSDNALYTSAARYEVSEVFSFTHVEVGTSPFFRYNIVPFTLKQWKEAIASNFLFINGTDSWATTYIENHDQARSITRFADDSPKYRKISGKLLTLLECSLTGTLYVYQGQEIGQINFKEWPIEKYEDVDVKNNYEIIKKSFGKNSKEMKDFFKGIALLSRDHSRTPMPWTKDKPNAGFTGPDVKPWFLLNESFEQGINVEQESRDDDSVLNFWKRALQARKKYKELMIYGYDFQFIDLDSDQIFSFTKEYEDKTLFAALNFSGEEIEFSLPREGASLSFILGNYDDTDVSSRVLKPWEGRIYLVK

[2] = Concentrations of precipitation in the α-glucosidase inhibition assay; type: physicochemical
Source text: Table 1 The α-glucosidase inhibition assay of 11a–o. | column: Concentrations of precipitation (µM)

α-glucosidase [3] = target: T1, α-glucosidase; assay: Enzyme kinetic studies (Lineweaver–Burk plot, secondary plot); type: biochemical
Source text: This pattern indicates a competitive inhibition mechanism. […] Additionally, by plotting the Km values against different inhibitor concentrations, an estimation of the inhibition constant (Ki) was obtained.

α-glucosidase [4] = target: T1, α-glucosidase; settings: cited from earlier work; for IC50: Fig. 1
α-amylase = test system: α-amylase; design: method as in doi:10.1016/j.molstruc.2022.133650; settings: at 108 μM; cited from earlier work
[5] = previously reported quinoline inhibitors

COc1cc(C=NNC(=O)c2cc(-c3ccccc3)nc3ccccc23)ccc1OCC(=O)Nc1ccccc1C [11a, 2-(2-methoxy-4-((2-(2-phenylquinoline-4-carbonyl)hydrazineylidene)methyl)phenoxy)-N-(o-tolyl)acetamide]
melting point: > 250 °C | IC50 (α-glucosidase [1]): 34.8 ± 1.1 µM

COc1cc(C=NNC(=O)c2cc(-c3ccccc3)nc3ccccc23)ccc1OCC(=O)Nc1ccc(C)cc1 [11b, 2-(2-methoxy-4-((2-(2-phenylquinoline-4-carbonyl)hydrazono)methyl)phenoxy)-N-(p-tolyl)acetamide]
Concentrations of precipitation [2]: ≥ 375 µM | melting point: > 250 °C | IC50 (α-glucosidase [1]): 95.2 ± 1.2 µM

COc1ccc(NC(=O)COc2ccc(C=NNC(=O)c3cc(-c4ccccc4)nc4ccccc34)cc2OC)cc1 [11c, 2-(2-methoxy-4-((2-(2-phenylquinoline-4-carbonyl)hydrazineylidene)methyl)phenoxy)-N-(4-methoxyphenyl)acetamide]
melting point: > 250 °C | IC50 (α-glucosidase [1]): 43.7 ± 1 µM

CCc1ccc(NC(=O)COc2ccc(C=NNC(=O)c3cc(-c4ccccc4)nc4ccccc34)cc2OC)cc1 [11d, N-(4-ethylphenyl)-2-(2-methoxy-4-((2-(2-phenylquinoline-4-carbonyl)hydrazono)methyl)phenoxy)acetamide]
Concentrations of precipitation [2]: ≥ 375 µM | melting point: > 250 °C | IC50 (α-glucosidase [1]): 156.8 ± 1.5 µM

COc1cc(C=NNC(=O)c2cc(-c3ccccc3)nc3ccccc23)ccc1OCC(=O)Nc1ccc(F)cc1 [11e, N-(4-fluorophenyl)-2-(2-methoxy-4-((2-(2-phenylquinoline-4-carbonyl)hydrazono)methyl)phenoxy)acetamide]
melting point: > 250 °C | IC50 (α-glucosidase [1]): 52.6 ± 0.6 µM

COc1cc(C=NNC(=O)c2cc(-c3ccccc3)nc3ccccc23)ccc1OCC(=O)Nc1ccc(Cl)cc1 [11f, N-(4-chlorophenyl)-2-(2-methoxy-4-((2-(2-phenylquinoline-4-carbonyl)hydrazono)methyl)phenoxy)acetamide]
Concentrations of precipitation [2]: ≥ 375 µM | melting point: > 250 °C | IC50 (α-glucosidase [1]): > 750 µM

COc1cc(C=NNC(=O)c2cc(-c3ccccc3)nc3ccccc23)ccc1OCC(=O)Nc1ccc(Br)cc1 [11g, N-(4-bromophenyl)-2-(2-methoxy-4-((2-(2-phenylquinoline-4-carbonyl)hydrazineylidene)methyl)phenoxy)acetamide]
Concentrations of precipitation [2]: ≥ 375 µM | melting point: > 250 °C | IC50 (α-glucosidase [1]): 180.9 ± 1.7 µM

COc1ccc(-c2cc(C(=O)NN=Cc3ccc(OCC(=O)Nc4ccccc4)c(OC)c3)c3ccccc3n2)cc1 [11h, 2-(2-methoxy-4-((2-(2-(4-methoxyphenyl)quinoline-4-carbonyl)hydrazono)methyl)phenoxy)-N-phenylacetamide]
Concentrations of precipitation [2]: ≥ 375 µM | melting point: > 250 °C | fold more potent vs positive control (α-glucosidase [1]; vs acarbose): more than 11 fold | IC50 (α-glucosidase [1]): 62.4 ± 0.9 µM

COc1ccc(-c2cc(C(=O)NN=Cc3ccc(OCC(=O)Nc4ccccc4C)c(OC)c3)c3ccccc3n2)cc1 [11i, 2-(2-methoxy-4-((2-(2-(4-methoxyphenyl)quinoline-4-carbonyl)hydrazono)methyl)phenoxy)-N-(o-tolyl)acetamide]
melting point: > 250 °C | IC50 (α-glucosidase [1]): 71.2 ± 0.6 µM

COc1ccc(NC(=O)COc2ccc(C=NNC(=O)c3cc(-c4ccc(OC)cc4)nc4ccccc34)cc2OC)cc1 [11j, 2-(2-methoxy-4-((2-(2-(4-methoxyphenyl)quinoline-4-carbonyl)hydrazono)methyl)phenoxy)-N-(4-methoxyphenyl)acetamide]
Concentrations of precipitation [2]: ≥ 190 µM | melting point: > 250 °C | IC50 (α-glucosidase [1]): 61.8 ± 0.5 µM

CCc1ccc(NC(=O)COc2ccc(C=NNC(=O)c3cc(-c4ccc(OC)cc4)nc4ccccc34)cc2OC)cc1 [11k, N-(4-ethylphenyl)-2-(2-methoxy-4-((2-(2-(4-methoxyphenyl)quinoline-4-carbonyl)hydrazono)methyl)phenoxy)acetamide]
Ki (α-glucosidase [3]): 25.6 µM | mode of inhibition (α-glucosidase [3]; Lineweaver–Burk plot): competitive | melting point: > 250 °C | IC50 (α-glucosidase [1]): 26 ± 0.8 µM

COc1ccc(-c2cc(C(=O)NN=Cc3ccc(OCC(=O)Nc4ccc(F)cc4)c(OC)c3)c3ccccc3n2)cc1 [11l, N-(4-fluorophenyl)-2-(2-methoxy-4-((2-(2-(4-methoxyphenyl)quinoline-4-carbonyl)hydrazono)methyl)phenoxy)acetamide]
Concentrations of precipitation [2]: ≥ 190 µM | melting point: > 250 °C | IC50 (α-glucosidase [1]): > 750 µM

COc1ccc(-c2cc(C(=O)NN=Cc3ccc(OCC(=O)Nc4ccc(Br)cc4)c(OC)c3)c3ccccc3n2)cc1 [11m, N-(4-bromophenyl)-2-(2-methoxy-4-((2-(2-(4-methoxyphenyl)quinoline-4-carbonyl)hydrazono)methyl)phenoxy)acetamide]
Concentrations of precipitation [2]: ≥ 190 µM | melting point: > 250 °C | IC50 (α-glucosidase [1]): 152 ± 1.7 µM

COc1ccc(-c2cc(C(=O)NN=Cc3ccc(OCC(=O)Nc4ccc(Cl)cc4)c(OC)c3)c3ccccc3n2)cc1 [11n, N-(4-chlorophenyl)-2-(2-methoxy-4-((2-(2-(4-methoxyphenyl)quinoline-4-carbonyl)hydrazono)methyl)phenoxy)acetamide]
Concentrations of precipitation [2]: ≥ 190 µM | melting point: > 250 °C | IC50 (α-glucosidase [1]): 48.7 ± 0.9 µM

COc1ccc(-c2cc(C(=O)NN=Cc3ccc(OCC(=O)Nc4ccc([N+](=O)[O-])cc4)c(OC)c3)c3ccccc3n2)cc1 [11o, 2-(2-methoxy-4-((2-(2-(4-methoxyphenyl)quinoline-4-carbonyl)hydrazono)methyl)phenoxy)-N-(4-nitrophenyl)acetamide]
melting point: > 250 °C | IC50 (α-glucosidase [1]): 459.8 ± 1.5 µM

O=C(O)c1ccc2ccccc2n1 [A]
IC50 (α-glucosidase [4]; [5]): 9.1 µM

O=C(O)c1cnc2ccccc2c1 [B]
IC50 (α-glucosidase [4]; [5]): 10.6 µM

O=C(CSc1nc2ccccc2cc1-c1nc2ccccc2[nH]1)Nc1ccc2ccccc2c1 [C]
IC50 (α-glucosidase [4]): 3.2 µM

O=C(NCCCC1OC(CO)C(O)C(O)C1O)c1cc(-c2ccccc2)nc2ccccc12 (centres unmarked) [D]
IC50 (α-glucosidase [4]): 7.98 µM

O=C(N/N=C/c1cccc(F)c1)c1ccc2nc(-c3ccccc3)c(-c3ccccc3)nc2c1 [E]
IC50 (α-glucosidase [4]): 111 µM

COc1ccc(-c2nc3cc(C(=O)N/N=C/c4ccc(O)c(OC)c4)ccc3[nH]2)cc1 [F]
IC50 (α-glucosidase [4]): 60.1 µM

COc1cc(/C=N/NC(=O)CC#N)ccc1OCc1cn(Cc2ccc(Cl)cc2)nn1 [G]
IC50 (α-glucosidase [4]): 1 µM

CCc1ccc(NC(=O)Cn2cc(COc3ccc(-c4nc5ccccc5[nH]4)cc3)nn2)cc1 [H]
Ki (α-glucosidase [4]): 23 µM | mode of inhibition (α-glucosidase [4]): competitive

COc1cc(-c2nc3ccccc3[nH]2)ccc1OCC(=O)Nc1ccc(F)cc1 [I]
IC50 (α-glucosidase [4]): 99.6 µM | Ki (α-glucosidase [4]): 67 µM | mode of inhibition (α-glucosidase [4]): competitive | α-amylase inhibition (α-amylase): 45.0 ± 0.8%

COc1cc(-c2nc3ccccc3c(=O)[nH]2)ccc1OCC(=O)Nc1ccccc1F [J]
IC50 (α-glucosidase [4]): 14.4 µM
